Like-named read-outs stand apart in the source and are kept apart here.
Key:
[1] = system: Leishmania infantum MHOM/MA(BE)/67/ITMAP263 amastigotes; assay: L. infantum intracellular amastigote assay in PMM; assay type: cell-based; conditions: Leishmania infantum
Summary of the method: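 Mouse peritoneal macrophages infected with hamster spleen-derived amastigotes (2 h, 37°C), then exposed to 4-fold dilutions from 64 μM (DMSO <1%) for 5 days at 37°C, 5% CO2. Burden scored microscopically after Giemsa staining as percent reduction vs untreated wells; IC50 as geometric mean of ≥2 experiments.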

[2] = system: L. infantum (MHOM/BR/2005/NLC) strain expressing luciferase; assay type: in vivo, Leishmania infantum; conditions: 40 mg/kg/day oral, 5 days, and washout
Method: Groups of female BALB/c mice (n = 5) were infected with 10^8 stationary phase promastigotes of L. infantum chagasi-LUC in a final volume of 100 μL by the intraperitoneal route. At day 14 post-infection, groups were orally treated for 5 days with either drug vehicle only (10% ethanol, 40% PEG400 and 0.4% Tween80 in saline buffer—pH adjusted to 9), miltefosine (40 mg/kg QD) or with compounds 29 and 39 (25 mg/kg QD). Light emission in the ventral abdominal cavity of infected animals was recorded by bioimaging (IVIS Spectrum, Caliper Life Sciences) on 14, 19- and 24-days post-infection. Before imaging, mice received 75 mg/kg VivoGlo™ Luciferin (Promega Corporation) (i.p.) and were anesthetized in a 2% isoflurane atmosphere (Cristália). Animals were then transferred to the imaging chamber and kept in a 2% isoflurane atmosphere. Emitted photons were collected using the high resolution (medium binning) mode. Total photon emission from a defined region of interest (ROI) corresponding to the whole abdominal area was registered. The same ROI was applied to all animals in any given group. Images were acquired 15 min after luciferin injection. Total photon emission from each mouse was quantified with Living Image software version 4.3.1 (Caliper Life Sciences), and results were expressed as the number of photons/s/ROI subtracted from the corresponding ROI in uninfected animals. The detected signal was presented as a pseudocolor image representing light intensity (red = most intense and blue = least intense) and superimposed on the gray scale reference image.

[3] = system: L. braziliensis MHOM/BR/94/H3227; assay: VL/CL panel, intracellular amastigotes; assay type: cell-based; conditions: Leishmania braziliensis; average; read-out: IC-50 L. braziliensis MHOM/BR/94/H3227
Method: (§1) For the antileishmania in vitro assays, 3×10^4 PMM/well were seeded in 96-well plates. After 24h, 5×10^5 amastigotes/well were added and incubated for 2h at 37°C. Next, the compounds in 4-fold serial dilutions were added and the plates were further incubated for 5 days (37°C, 5% CO2). Parasite burdens were assessed using an inverted microscope after Giemsa staining. The results were expressed as percent reduction in parasite burdens compared to negative control wells (100% growth) and IC50 values were determined. Values represent the geometric mean of at least two independent experiments. Miltefosine was used as the positive control in all plates.

[4] = system: L. donovani MHOM/ NP/2003/ BPK282/0-cl4; assay: VL/CL panel, intracellular amastigotes; assay type: cell-based; conditions: Leishmania donovani; average; read-out: IC-50 L. donovani MHOM/ NP/2003/ BPK282/0-cl4
Method: as §1

[5] = system: L. donovani MHOM/ET/2007/LLM-1600; assay: VL/CL panel, intracellular amastigotes; assay type: cell-based; conditions: Leishmania donovani; average; read-out: IC-50 L. donovani MHOM/ET/2007/LLM-1600
Method: as §1

[6] = system: L. donovani MHOM/NP/03/BPK275/0-cl18; assay: VL/CL panel, intracellular amastigotes; assay type: cell-based; conditions: Leishmania donovani; average; read-out: IC-50 L. donovani MHOM/NP/03/BPK275/0-cl18
Method: as §1

[7] = system: L. guyanensis MHOM/PE/02/PER 054/0; assay: VL/CL panel, intracellular amastigotes; assay type: cell-based; conditions: Leishmania guyanensis; average; read-out: IC-50 L. guyanensis MHOM/PE/02/PER 054/0
Method: as §1

[8] = system: L. infantum LEM3323-cl4 MIL; assay: VL/CL panel, intracellular amastigotes; assay type: cell-based; conditions: Leishmania infantum, read-out: IC-50 L. infantum LEM3323-cl4 MIL
Method: as §1

[9] = system: L. infantum LEM3323-cl4 PMM; assay: VL/CL panel, intracellular amastigotes; assay type: cell-based; conditions: Leishmania infantum, read-out: IC-50 L. infantum LEM3323-cl4 PMM
Method: as §1

[10] = system: L. infantum MHOM/BR/2007/WC (L3015); assay: VL/CL panel, intracellular amastigotes; assay type: cell-based; conditions: Leishmania infantum; average; read-out: IC-50 L. infantum MHOM/BR/2007/WC (L3015)
Method: as §1

[11] = system: L. infantum MHOM/ES/2016/LLM-2346; assay: VL/CL panel, intracellular amastigotes; assay type: cell-based; conditions: Leishmania infantum; average; read-out: IC-50 L. infantum MHOM/ES/2016/LLM-2346
Method: as §1

[12] = system: L. infantum MHOM/FR/96/LEM3323-cl4; assay: VL/CL panel, intracellular amastigotes; assay type: cell-based; conditions: Leishmania infantum; average; read-out: IC-50 L. infantum MHOM/FR/96/LEM3323-cl4
Method: as §1

[13] = system: L. major MHOM/IL/81/Friedlin; assay: VL/CL panel, intracellular amastigotes; assay type: cell-based; conditions: Leishmania major; average; read-out: IC-50 L. major MHOM/IL/81/Friedlin
Method: as §1

[14] = system: L. major MHOM/SA/85/JISH118; assay: VL/CL panel, intracellular amastigotes; assay type: cell-based; conditions: Leishmania major; average; read-out: IC-50 L. major MHOM/SA/85/JISH118
Method: as §1

[15] = system: L. panamensis MHOM/PA/71/LS94; assay: VL/CL panel, intracellular amastigotes; assay type: cell-based; conditions: Leishmania panamensis; average; read-out: IC-50 L. panamensis MHOM/PA/71/LS94
Method: as §1

[16] = system: L. tropica MHOM/AF/2015/HTD7; assay: VL/CL panel, intracellular amastigotes; assay type: cell-based; conditions: Leishmania tropica; average; read-out: IC-50 L. tropica MHOM/AF/2015/HTD7
Method: as §1

Question: For `CCCCCCCCCCCCCCCCOP(=O)([O-])OCC[N+](C)(C)C` [Miltefosine, reference compound], which IC50 ([1]; 120 h, intracellular amastigotes in PMM, 5 days, read-out: L. infantum IC50) is on record?
Answer: Its IC50 is 11200 nM.

Question: And the IC50 ([1]; panel sheet, average, read-out: IC-50 L. infantum MHOM/MA/67/ITMAP263)?
Answer: The IC50 was 1160 nM.

Question: And the “parasite load (total ventral bioluminescence)” value [2]?
Answer: The value was “undetectable levels”.

Question: And the IC50 [3]?
Answer: The IC50 was 1000 nM.

Question: What about the IC50 [4] of the same compound?
Answer: Its IC50 is 1810 nM.

Question: What about the IC50 [5] of the same compound?
Answer: The IC50 was 2010 nM.

Question: What about the IC50 [6] of the same compound?
Answer: The IC50 was 2070 nM.

Question: And the IC50 [7]?
Answer: The IC50 was 8060 nM.

Question: What about the IC50 [8] of the same compound?
Answer: Its IC50 is 20300 nM.

Question: And the IC50 [9]?
Answer: Its IC50 is 2690 nM.

Question: What about the IC50 [10] of the same compound?
Answer: Its IC50 is 2160 nM.

Question: And the IC50 [11]?
Answer: Its IC50 is 2070 nM.

Question: And the IC50 [12]?
Answer: Its IC50 is 2010 nM.

Question: What about the IC50 [13] of the same compound?
Answer: Its IC50 is 11300 nM.

Question: And the IC50 [14]?
Answer: The IC50 was 24000 nM.

Question: And the IC50 [15]?
Answer: Its IC50 is 1810 nM.

Question: And the IC50 [16]?
Answer: Its IC50 is 2160 nM.
